Molecular target: T1, Peroxisome proliferator-activated receptor gamma (Homo sapiens, UniProt P37231)
T1 sequence (P37231 whole entry): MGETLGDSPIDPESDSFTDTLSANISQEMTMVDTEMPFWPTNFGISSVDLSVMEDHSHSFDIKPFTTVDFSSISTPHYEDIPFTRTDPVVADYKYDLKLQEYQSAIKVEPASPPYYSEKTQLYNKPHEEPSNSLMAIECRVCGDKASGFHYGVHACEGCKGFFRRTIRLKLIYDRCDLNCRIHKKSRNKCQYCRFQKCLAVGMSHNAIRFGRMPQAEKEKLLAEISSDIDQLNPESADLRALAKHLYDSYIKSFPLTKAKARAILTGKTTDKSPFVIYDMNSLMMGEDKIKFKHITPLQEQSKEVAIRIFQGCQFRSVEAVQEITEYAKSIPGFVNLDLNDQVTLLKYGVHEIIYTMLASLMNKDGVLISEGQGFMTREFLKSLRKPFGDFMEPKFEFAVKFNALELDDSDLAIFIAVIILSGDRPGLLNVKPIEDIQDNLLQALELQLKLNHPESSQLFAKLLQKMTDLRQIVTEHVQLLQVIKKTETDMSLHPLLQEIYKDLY
Experiment: Lanthascreen Competitive Binding Assay: The assay was performed according to manufacturer protocol. A mixture of […], 5 nM Tb-GST-antibody, 5 nM Fluormone Pan-PPAR Green, and serial dilutions of the experimental compound, beginning at 10 μM downwards, was added to wells of black 384-well low-volume plates (Greiner) to a total volume of 18 μL. All dilutions were made in TR-FRET assay buffer C. DMSO at 2% final concentration was used as a no-ligand control. Experiment was performed in triplicate, and incubated for 2 hours in the dark prior to assay read in Perkin Elmer ViewLux ultra HTS microplate reader. FRET signal was measured by excitation at 340 nm and emission at 520 nm for fluorescein and 490 nm for terbium. Fold change over DMSO was calculated using GraphPad Prism Software (La Jolla, Calif.) by calculating 520 nm/490 nm ratio. Graphs were plotted as fold change of FRET signal for compound treatment over DMSO-only control.

First: CCC(NC(=O)c1ccc2c(c1)c(C)c(C)n2Cc1ccc(-c2ccccc2C#N)cc1)c1ccccc1 (stereo unspecified)
Second: CC[C@@H](NC(=O)c1ccc2c(c1)c(C)c(C)n2Cc1ccccc1-c1ccc(C(=O)O)cc1)c1ccccc1
The IC50 of the first is 150-fold lower: 0.54 nM for the first, 80 nM for the second.

`Cc1c(C)n(Cc2ccc(-c3cccnc3)cc2)c2ccc(C(=O)N[C@@H](C)c3ccc([N+](=O)[O-])cc3)cc12` and `Cc1cn(Cc2ccc(-c3ccccc3C(=O)O)cc2)c2ccc(C(=O)N[C@@H](C)c3ccc([N+](=O)[O-])cc3)cc12` are within 1.5-fold of each other in IC50: 150 nM for the first, 126 nM for the second.

Compared with `Cc1c(C)n(Cc2ccc(-c3ccccc3C(=O)O)cc2)c2ccc(C(=O)NCc3ccc(F)c(F)c3)cc12`, `Cc1c(C)n(Cc2ccc(-c3ccccc3C(=O)O)cc2)c2ccc(C(=O)N[C@@H](C)c3ccc(Cl)c(C(F)(F)F)c3)cc12` is 2.1-fold lower in IC50: 31 nM for the first, 15 nM for the second.

`CCC(NC(=O)c1ccc2c(c1)c(C)cn2Cc1ccc(-c2ccccc2C(=O)O)cc1)c1ccccc1` (stereo unspecified) and `CCC(NC(=O)c1ccc2c(c1)cc(C)n2Cc1ccc(-c2ccccc2C(=O)O)cc1)c1ccccc1` (stereo unspecified) are the same in IC50: 2 nM for the first, 2 nM for the second.

First: CC[C@@H](NC(=O)c1ccc2c(c1)c(C)c(C)n2Cc1ccccc1-c1cccc(C(=O)O)c1)c1ccccc1
Second: CC[C@H](NC(=O)c1ccc2c(c1)c(C)c(C)n2Cc1ccccc1-c1cccc(C(=O)O)c1)c1ccccc1
The IC50 of the first is 4-fold lower: 20 nM for the first, 80 nM for the second.

Compared with `CC[C@H](NC(=O)c1ccc2c(c1)c(C)c(C)n2Cc1ccccc1-c1ccc(C(=O)O)cc1)c1ccccc1`, `Cc1c(C)n(Cc2ccc(-c3ccccc3C(=O)O)cc2)c2ccc(C(=O)N[C@@H](C)c3cccc(OC(C)C)c3)cc12` is lower in IC50: over 1000 nM for the first, 19 nM for the second.

Going from `Cc1c(C)n(Cc2ccc(-c3ccccc3C(=O)O)cc2)c2ccc(C(=O)N[C@@H](C)c3ccc(OC(C)(C)C)cc3)cc12` to `Cc1c(C)n(Cc2ccc(-c3ccccc3C(=O)O)cc2)c2ccc(C(=O)N[C@@H](C)c3ccc(OC(C)C)cc3)cc12`, the IC50 falls from 449 nM to 34 nM (13-fold). The second is the more potent here.

First: Cc1c(C)n(Cc2ccc(-c3ccccc3C(=O)O)cc2)c2ccc(C(=O)N[C@@H](C)C3CCN(C(=O)NCc4ccccc4)CC3)cc12
Second: Cc1c(C)n(Cc2ccc(-c3ccccc3C(=O)O)cc2)c2ccc(C(=O)N[C@H]3CCN(C(=O)OCc4ccccc4)C3)cc12
The IC50 of the first is 1.5-fold higher: 805 nM for the first, 536 nM for the second. The second is the more potent here.
